Publication PMC5933782, “Molecular structures of cdc2-like kinases in complex with a new inhibitor chemotype” (PLoS ONE, 2018)
Where a name gives a salt, the structure may show the parent alone. Read-outs that look alike come from different tables or passages of the source.

Legend:
CDK9/cyclin T = CDK9/cyclin T (Homo sapiens, UniProt P50750); experiment: radiometric protein kinase assay
Method: (§1) Buffers. Buffer A: 10 mM MgCl2, 1 mM EGTA, 1 mM DTT, 25 mM Tris-HCl pH 7.5, 50 μg heparin/mL. Buffer C: 60 mM β-glycerophosphate, 15 mM p-nitrophenylphosphate, 25 mM MOPS (pH 7.2), 15 mM EGTA, 15 mM MgCl2, 1 mM DTT, 1 mM sodium vanadate, 1 mM phenylphosphate.
(§2) Kinase activities were assayed in buffer A or C at 30°C at a final ATP concentration of 15 μmol/L. Blank values were subtracted and activities were expressed in percent of the maximal activity, i.e. in the absence of inhibitors. Controls were performed with appropriate dilutions of DMSO.
(§3) Their kinase activity was assayed in buffer A, with 1 mg histone H1/mL, in the presence of 15 μmol/L [γ-33P] ATP (3,000 Ci/mmol; 10 mCi/mL) in a final volume of 30 μL. After 30 min incubation at 30°C, the reaction was stopped by harvesting onto P81 phosphocellulose supernatant (Whatman) using a FilterMate harvester (Packard) and washing in 1% phosphoric acid. Scintillation fluid was added and the radioactivity measured in a Packard counter.
(§4) All data points for construction of dose response curves were recorded in triplicate.

CK1δ/ε = experiment: radiometric protein kinase assay; assay type: biochemical, porcine; conditions: 15 μmol/L ATP; read-out: IC50 CK1
CDK5/p25 = target: T1, CDK5/p25 (Homo sapiens, UniProt Q00535); experiment: radiometric protein kinase assay; assay type: biochemical; conditions: 15 μmol/L ATP
T1 construct: made in house

GSK-3 = experiment: radiometric protein kinase assay; assay type: biochemical, porcine; conditions: 15 μmol/L ATP; read-out: IC50 GSK3
CLK1 [1] = target: CLK1 (Mus musculus, UniProt P22518); experiment: radiometric protein kinase assay
CDK2/cyclin A = target: T2, CDK2/cyclin A (Homo sapiens, UniProt P24941); experiment: radiometric protein kinase assay; assay type: biochemical; conditions: 15 μmol/L ATP; read-out: IC50 CDK2/cyclinA
T2 construct: made in house

DYRK1A [2] = target: DYRK1A (Homo sapiens, UniProt Q13627); experiment: radiometric protein kinase assay; assay type: biochemical; conditions: 15 μmol/L ATP; read-out: IC50 DYRK 1A
CDK1/cyclin B = experiment: radiometric protein kinase assay; assay type: biochemical, starfish; conditions: 15 μmol/L ATP
DYRK3 = target: T3, DYRK3 (Homo sapiens, UniProt O43781); experiment: radiometric protein kinase assay; assay type: biochemical; conditions: 15 μmol/L ATP; read-out: IC50 DYRK 3
T3 sequence (O43781 1-588): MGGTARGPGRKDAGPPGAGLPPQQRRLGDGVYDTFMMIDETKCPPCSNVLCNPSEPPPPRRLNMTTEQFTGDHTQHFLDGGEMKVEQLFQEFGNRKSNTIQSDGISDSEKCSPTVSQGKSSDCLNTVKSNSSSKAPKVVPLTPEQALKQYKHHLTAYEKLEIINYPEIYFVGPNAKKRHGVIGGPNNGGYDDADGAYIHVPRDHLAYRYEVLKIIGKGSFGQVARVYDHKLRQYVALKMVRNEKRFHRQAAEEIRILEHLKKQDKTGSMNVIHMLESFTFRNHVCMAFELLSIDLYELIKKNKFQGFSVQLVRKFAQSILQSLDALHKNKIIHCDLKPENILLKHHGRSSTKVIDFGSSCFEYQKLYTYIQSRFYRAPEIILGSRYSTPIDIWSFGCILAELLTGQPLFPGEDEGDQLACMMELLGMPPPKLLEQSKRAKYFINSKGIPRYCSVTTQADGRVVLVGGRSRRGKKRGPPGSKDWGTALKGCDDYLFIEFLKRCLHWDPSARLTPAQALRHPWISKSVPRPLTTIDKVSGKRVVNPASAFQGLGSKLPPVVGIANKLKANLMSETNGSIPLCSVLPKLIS

CLK4 = CLK4 (Mus musculus, UniProt O35493); experiment: radiometric protein kinase assay
Method: as §1, §2, §3, §4

CLK3 = CLK3 (Mus musculus, UniProt O35492); experiment: radiometric protein kinase assay
Method: as §1, §2, §3, §4

DYRK2 = target: T4, DYRK2 (Homo sapiens, UniProt Q92630); experiment: radiometric protein kinase assay; assay type: biochemical; conditions: 15 μmol/L ATP; read-out: IC50 DYRK 2
T4 sequence (Q92630 1-601): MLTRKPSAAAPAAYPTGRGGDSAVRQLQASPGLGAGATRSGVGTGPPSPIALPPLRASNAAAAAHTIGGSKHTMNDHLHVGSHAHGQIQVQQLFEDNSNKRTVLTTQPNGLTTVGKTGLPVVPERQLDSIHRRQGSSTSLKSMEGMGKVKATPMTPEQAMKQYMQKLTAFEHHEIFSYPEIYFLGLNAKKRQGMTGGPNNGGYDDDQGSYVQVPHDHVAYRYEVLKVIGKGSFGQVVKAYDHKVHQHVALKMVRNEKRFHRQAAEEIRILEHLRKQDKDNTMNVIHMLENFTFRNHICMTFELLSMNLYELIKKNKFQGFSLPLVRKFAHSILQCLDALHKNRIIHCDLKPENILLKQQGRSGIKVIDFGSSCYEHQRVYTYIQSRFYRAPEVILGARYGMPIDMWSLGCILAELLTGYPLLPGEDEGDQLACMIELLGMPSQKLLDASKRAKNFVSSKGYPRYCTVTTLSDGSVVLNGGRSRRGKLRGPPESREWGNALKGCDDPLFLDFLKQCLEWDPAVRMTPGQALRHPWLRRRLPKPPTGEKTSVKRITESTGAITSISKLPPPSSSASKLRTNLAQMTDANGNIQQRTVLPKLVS

CLK2 = CLK2 (Mus musculus, UniProt O35491); experiment: radiometric protein kinase assay
DYRK1B = DYRK1B (Homo sapiens, UniProt Q9Y463); experiment: radiometric protein kinase assay; assay type: biochemical; conditions: 15 μmol/L ATP; read-out: IC50 DYRK 1B
CLK1 [3] = test system: CLK1; design: method as in PMID 21450467; conditions: cited from earlier work
DYRK1A [4] = test system: DYRK1A; design: method as in PMID 21450467; conditions: cited from earlier work
CLK1 [5] = conditions: cited from earlier work
HCT116 = conditions: colorectal cancer cell line; cited from earlier work
DYRK1A [6] = conditions: cited from earlier work
CLK1 [7] = test system: CLK1; design: method as in PMID 28555643; conditions: 1 μM; cited from earlier work
DYRK1A [8] = test system: DYRK1A; design: method as in PMID 28555643; conditions: 1 μM; cited from earlier work
CLK1 [9] = test system: CLK1; design: method as in PMID 28561591; conditions: cited from earlier work
DYRK1A [10] = test system: DYRK1A; design: method as in PMID 28561591; conditions: cited from earlier work

CLK1 (Mus musculus, UniProt P22518), sequence (P22518 whole entry): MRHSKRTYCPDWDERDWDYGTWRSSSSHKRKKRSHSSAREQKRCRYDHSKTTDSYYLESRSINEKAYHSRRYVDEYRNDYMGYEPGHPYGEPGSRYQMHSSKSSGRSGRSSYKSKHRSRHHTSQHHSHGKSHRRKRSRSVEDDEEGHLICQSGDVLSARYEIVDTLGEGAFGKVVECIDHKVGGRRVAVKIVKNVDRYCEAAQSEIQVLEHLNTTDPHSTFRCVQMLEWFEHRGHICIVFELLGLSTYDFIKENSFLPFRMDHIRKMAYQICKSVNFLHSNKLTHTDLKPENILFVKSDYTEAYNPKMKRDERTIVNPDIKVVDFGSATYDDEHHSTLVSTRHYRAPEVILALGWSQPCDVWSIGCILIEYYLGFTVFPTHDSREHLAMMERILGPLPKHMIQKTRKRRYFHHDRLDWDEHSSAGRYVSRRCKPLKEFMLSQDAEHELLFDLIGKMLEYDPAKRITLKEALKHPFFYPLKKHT
T1 sequence (Q00535 whole entry): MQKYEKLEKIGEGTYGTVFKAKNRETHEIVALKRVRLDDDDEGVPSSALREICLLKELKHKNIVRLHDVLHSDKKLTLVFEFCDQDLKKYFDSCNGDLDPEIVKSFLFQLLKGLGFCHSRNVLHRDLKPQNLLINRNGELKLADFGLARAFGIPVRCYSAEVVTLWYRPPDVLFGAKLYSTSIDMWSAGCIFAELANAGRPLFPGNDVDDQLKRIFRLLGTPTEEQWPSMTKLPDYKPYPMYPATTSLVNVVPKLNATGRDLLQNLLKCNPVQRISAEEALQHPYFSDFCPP
T1 sequence (Q15078 99-307 partner limits assumed): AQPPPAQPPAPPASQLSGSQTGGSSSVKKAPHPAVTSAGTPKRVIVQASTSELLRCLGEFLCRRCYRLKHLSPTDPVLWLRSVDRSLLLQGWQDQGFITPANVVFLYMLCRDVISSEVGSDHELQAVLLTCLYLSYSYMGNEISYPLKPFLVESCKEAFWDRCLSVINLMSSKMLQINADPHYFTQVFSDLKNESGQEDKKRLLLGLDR
DYRK1B, sequence (Q9Y463 whole entry): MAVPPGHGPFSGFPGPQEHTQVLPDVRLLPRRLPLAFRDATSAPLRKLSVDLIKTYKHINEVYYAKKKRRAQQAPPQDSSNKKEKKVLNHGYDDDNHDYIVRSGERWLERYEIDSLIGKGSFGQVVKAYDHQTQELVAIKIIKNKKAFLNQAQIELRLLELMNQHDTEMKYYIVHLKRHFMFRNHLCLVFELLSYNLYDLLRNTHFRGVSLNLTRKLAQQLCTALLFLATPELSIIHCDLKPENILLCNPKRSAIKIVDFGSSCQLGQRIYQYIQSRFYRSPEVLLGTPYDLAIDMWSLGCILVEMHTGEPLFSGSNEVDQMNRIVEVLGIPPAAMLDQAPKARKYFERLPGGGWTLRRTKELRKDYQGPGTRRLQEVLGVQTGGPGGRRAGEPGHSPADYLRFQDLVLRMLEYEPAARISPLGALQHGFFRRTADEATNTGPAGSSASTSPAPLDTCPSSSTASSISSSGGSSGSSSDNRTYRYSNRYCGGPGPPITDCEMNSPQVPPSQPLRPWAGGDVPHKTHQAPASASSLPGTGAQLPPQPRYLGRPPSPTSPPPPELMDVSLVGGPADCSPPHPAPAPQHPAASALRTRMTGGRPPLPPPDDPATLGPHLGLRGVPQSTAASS
CDK9/cyclin T, sequence (P50750 whole entry): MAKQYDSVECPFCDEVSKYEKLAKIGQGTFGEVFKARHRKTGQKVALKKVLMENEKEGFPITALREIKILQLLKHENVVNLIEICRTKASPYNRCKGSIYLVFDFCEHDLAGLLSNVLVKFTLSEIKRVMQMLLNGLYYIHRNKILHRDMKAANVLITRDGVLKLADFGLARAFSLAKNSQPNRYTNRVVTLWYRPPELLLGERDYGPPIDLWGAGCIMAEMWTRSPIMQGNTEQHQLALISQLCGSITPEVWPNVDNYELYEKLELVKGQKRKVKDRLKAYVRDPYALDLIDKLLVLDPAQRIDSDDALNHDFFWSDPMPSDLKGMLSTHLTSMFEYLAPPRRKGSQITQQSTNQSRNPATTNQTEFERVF
CDK9/cyclin T, sequence (O60563 whole entry partner): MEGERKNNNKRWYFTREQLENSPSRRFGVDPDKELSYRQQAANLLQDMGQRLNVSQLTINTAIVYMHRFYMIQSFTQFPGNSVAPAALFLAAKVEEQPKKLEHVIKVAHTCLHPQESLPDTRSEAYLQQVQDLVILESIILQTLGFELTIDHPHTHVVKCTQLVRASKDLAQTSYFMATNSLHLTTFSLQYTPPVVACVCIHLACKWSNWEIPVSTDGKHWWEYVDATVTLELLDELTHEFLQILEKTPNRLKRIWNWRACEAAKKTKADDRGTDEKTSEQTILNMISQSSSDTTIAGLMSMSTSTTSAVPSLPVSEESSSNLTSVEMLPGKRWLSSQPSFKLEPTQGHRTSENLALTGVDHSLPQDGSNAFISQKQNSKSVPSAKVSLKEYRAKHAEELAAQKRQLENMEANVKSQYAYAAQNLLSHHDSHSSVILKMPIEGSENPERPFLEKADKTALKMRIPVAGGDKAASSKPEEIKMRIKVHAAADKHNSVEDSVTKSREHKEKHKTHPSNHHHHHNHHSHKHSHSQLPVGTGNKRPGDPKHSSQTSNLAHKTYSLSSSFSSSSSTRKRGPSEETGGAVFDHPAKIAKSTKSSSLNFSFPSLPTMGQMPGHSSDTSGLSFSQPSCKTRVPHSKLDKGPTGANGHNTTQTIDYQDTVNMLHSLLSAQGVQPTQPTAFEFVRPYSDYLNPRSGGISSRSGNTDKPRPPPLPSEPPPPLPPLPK
CLK4, sequence (O35493 whole entry): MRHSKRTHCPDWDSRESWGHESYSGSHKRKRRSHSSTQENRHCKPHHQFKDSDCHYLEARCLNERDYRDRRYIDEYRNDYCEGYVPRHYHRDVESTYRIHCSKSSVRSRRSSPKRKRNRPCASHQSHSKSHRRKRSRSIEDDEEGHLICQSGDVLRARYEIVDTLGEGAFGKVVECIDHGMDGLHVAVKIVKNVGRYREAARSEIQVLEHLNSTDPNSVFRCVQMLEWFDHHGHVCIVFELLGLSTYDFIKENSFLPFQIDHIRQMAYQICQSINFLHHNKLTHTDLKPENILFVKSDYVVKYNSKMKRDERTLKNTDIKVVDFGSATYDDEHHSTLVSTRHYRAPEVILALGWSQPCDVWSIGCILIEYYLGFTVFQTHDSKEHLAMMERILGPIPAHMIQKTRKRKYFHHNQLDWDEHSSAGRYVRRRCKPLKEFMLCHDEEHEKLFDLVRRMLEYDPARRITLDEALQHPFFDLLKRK
CLK2, sequence (O35491 whole entry): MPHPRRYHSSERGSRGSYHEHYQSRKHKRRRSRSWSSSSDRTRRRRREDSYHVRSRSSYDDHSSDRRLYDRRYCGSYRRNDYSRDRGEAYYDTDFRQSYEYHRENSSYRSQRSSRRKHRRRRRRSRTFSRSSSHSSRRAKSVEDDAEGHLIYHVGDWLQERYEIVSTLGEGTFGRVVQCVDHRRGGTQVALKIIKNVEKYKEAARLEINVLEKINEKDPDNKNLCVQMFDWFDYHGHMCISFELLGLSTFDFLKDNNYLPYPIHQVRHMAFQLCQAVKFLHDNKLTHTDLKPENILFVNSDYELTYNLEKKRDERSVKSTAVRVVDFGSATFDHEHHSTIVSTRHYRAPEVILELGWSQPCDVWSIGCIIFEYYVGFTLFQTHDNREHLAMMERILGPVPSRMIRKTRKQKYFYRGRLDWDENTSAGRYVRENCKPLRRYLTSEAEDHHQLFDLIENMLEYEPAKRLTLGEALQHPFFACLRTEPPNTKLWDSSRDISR
CLK3, sequence (O35492 whole entry): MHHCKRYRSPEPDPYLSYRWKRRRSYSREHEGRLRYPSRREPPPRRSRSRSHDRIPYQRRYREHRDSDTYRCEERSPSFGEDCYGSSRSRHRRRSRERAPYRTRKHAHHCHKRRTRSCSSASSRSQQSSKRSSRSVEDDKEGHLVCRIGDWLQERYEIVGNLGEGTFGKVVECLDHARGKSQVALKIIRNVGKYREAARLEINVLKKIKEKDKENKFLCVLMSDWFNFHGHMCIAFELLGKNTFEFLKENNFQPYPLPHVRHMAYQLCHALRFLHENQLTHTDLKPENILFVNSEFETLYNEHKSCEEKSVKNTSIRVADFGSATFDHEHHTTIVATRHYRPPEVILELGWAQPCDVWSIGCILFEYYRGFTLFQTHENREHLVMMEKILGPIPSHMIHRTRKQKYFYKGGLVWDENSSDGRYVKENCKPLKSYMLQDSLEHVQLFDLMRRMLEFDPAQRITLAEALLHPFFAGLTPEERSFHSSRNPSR

SMILES	melting point	IC50 (CDK9/cyclin T) [µM]	IC50 (CK1δ/ε) [µM]	IC50 (CDK5/p25) [µM]	IC50 (GSK-3) [µM]	IC50 (CLK1 [1]) [µM]	IC50 (CDK2/cyclin A) [µM]	IC50 (DYRK1A [2]) [µM]	IC50 (CDK1/cyclin B) [µM]	other results
CCc1[nH]c2c3c(ccc2c1-c1ccccc1)CNC3=O (as salt: sodium) [8l, 2-Ethyl-3-phenyl-6,7-dihydropyrrolo[3,4-g]indol-8(1H)-one]	165 to 170 °C	–	–	–	–	–	–	–	–	–
O=C1NCc2c(Br)cc3c(-c4ccccc4)c[nH]c3c21 (as salt: sodium) [12a, 5-Bromo-3-phenyl-6,7-dihydropyrrolo[3,4-g]indol-8(1H)-one]	226 to 227 °C	–	–	–	–	–	–	–	–	–
CN1Cc2ccc3c(-c4ccccc4)c[nH]c3c2C1=O (as salt: sodium) [12d, 7-Methyl-3-phenyl-6,7-dihydropyrrolo[3,4-g]indol-8(1H)-one]	265 to 267 °C	–	–	–	–	–	–	–	–	–
O=C1NCc2ccc3c(-c4ccccc4Cl)c[nH]c3c21 [8b, 3-(2-Chlorophenyl)-6,7-dihydropyrrolo[3,4-g]indol-8(1H)-one]	234 to 235 °C	> 10	> 10	> 10	> 10	0.14	> 10	1.1	> 10	–
COc1cccc(-c2c[nH]c3c4c(ccc23)CNC4=O)c1 [8f, 3-(3-Methoxyphenyl)-6,7-dihydropyrrolo[3,4-g]indol-8(1H)-one]	207 to 208 °C	> 10	> 10	> 10	> 10	0.11	> 10	3.8	> 10	IC50 (DYRK3): 5.4 µM; IC50 (CLK4): 0.11 µM; IC50 (CLK3): 2.8 µM; IC50 (DYRK2): 2.1 µM; IC50 (CLK2): 0.32 µM; IC50 (DYRK1B): 1.9 µM
O=C1NCc2ccc3c(-c4cccc([N+](=O)[O-])c4)c[nH]c3c21 [8j, 3-(3-Nitrophenyl)-6,7-dihydropyrrolo[3,4-g]indol-8(1H)-one]	237 to 238 °C (dec.)	> 10	> 10	> 10	> 10	0.038	> 10	> 10	> 10	IC50 (DYRK3): 1.9 µM; IC50 (CLK4): 0.061 µM; IC50 (CLK3): 8.5 µM; IC50 (DYRK2): 4.9 µM; IC50 (CLK2): 0.37 µM; IC50 (DYRK1B): 1.5 µM
Cn1cc(-c2ccccc2)c2ccc3c(c21)C(=O)NC3 [15a, 1-Methyl-3-phenyl-6,7-dihydropyrrolo[3,4-g]indol-8(1H)-one]	255 to 256 °C	> 10	> 10	> 10	> 10	0.19	> 10	> 10	> 10	IC50 (DYRK3): > 10 µM; IC50 (CLK4): 0.16 µM; IC50 (CLK3): > 10 µM; IC50 (DYRK2): > 10 µM; IC50 (CLK2): 1.1 µM; IC50 (DYRK1B): > 10 µM
CCn1cc(-c2ccccc2)c2ccc3c(c21)C(=O)NC3 [15b, 1-Ethyl-3-phenyl-6,7-dihydropyrrolo[3,4-g]indol-8(1H)-one]	198 to 200 °C	> 10	> 10	> 10	> 10	0.38	> 10	3.9	> 10	–
CCOC(=O)Cn1cc(-c2ccccc2)c2ccc3c(c21)C(=O)NC3 [15d, Ethyl 2-(8-oxo-3-phenyl-7,8-dihydropyrrolo[3,4-g]indol-1(6H)-yl)acetate]	226 to 227 °C	> 10	> 10	> 10	> 10	> 10	> 10	> 10	> 10	–
O=C1NCc2c(-c3ccccc3F)cc3c(-c4ccccc4)c[nH]c3c21 [17b, 5-(2-Fluorophenyl)-3-phenyl-6,7-dihydropyrrolo[3,4-g]indol-8(1H)-one]	136 to 139 °C	> 10	> 10	> 10	> 10	5.8	> 10	> 10	> 10	IC50 (DYRK3): > 10 µM; IC50 (CLK4): 0.91 µM; IC50 (CLK3): > 10 µM; IC50 (DYRK2): > 10 µM; IC50 (CLK2): 4.1 µM; IC50 (DYRK1B): > 10 µM
Cc1nc(CNc2ncnc3ccc(-c4ccc5c(c4)OCO5)cc23)cs1 [NCGC00185963]	–	–	–	–	–	–	–	–	–	IC50 (CLK1 [3]): 0.096 µM; IC50 (DYRK1A [4]): 0.206 µM
CN1CCN(C(=O)C(C)(C)c2ccc(C(=O)Nc3cn4cc(-c5ccncc5)ccc4n3)cc2)CC1 [T3]	–	–	–	–	–	–	–	–	–	IC50 (CLK1 [5]): 0.00067 µM; GI50 (HCT116): 0.13 µM; IC50 (DYRK1A [6]): 0.26 µM
c1cc(-c2ccc3[nH]ncc3c2)ccn1 [TG693]	–	–	–	–	–	–	–	–	–	inhibition of CLK1 activity (CLK1 [7]): 93%; inhibition of DYRK1A activity (DYRK1A [8]): 84%
COc1ccc2sc(C(=O)N(C)Cc3cccc(F)c3)cc2c1 [compound 4]	–	–	–	–	–	–	–	–	–	IC50 (CLK1 [9]): 0.007 µM; IC50 (DYRK1A [10]): 0.34 µM
